Assay results as given in US5837282A, “Ionophore-mediated liposome loading” (priority 1996, dated 1998).
Where two headings read alike, the source gives them in different places.

Tests used:
[1] = Deamer et al.; cited from earlier work
[2] = Fluorimetric determination of A23187 in a liposomal formulation; format: physicochemical; details: for Amount of A23187 measured: no removal; for remaining A23187 concentration: initial 500 ng
Method: The quantity of A23187 in SPM/Chol LUVs was determined by measuring the fluorescence intensity of the ionophore at an emission wavelength of 437 nm following solubilization of the liposomal formulation and complexation of the released divalent cations. Briefly, an aliquot of LUV/A23187 (corresponding to 5 μmol total lipid) was combined with a 333 mM EDTA solution (3 μL) and the volume was made up to 1 mL with ethanol:methanol (70:30 v:v). The sample was vortexed until clear, and the fluorescence intensity was measured. Calibration standards were prepared by the addition of known aliquots of A23187 to a 1 mL solution consisting of ethanol:methanol (70:30 v:v) and containing 5 mM total lipid.
As mentioned above, the concentration of A23187 in LUVs can be quantitated using a fluorimetric assay which allows determination of the amount remaining following various purification procedures. The results are given in Table 5 for SPM/Chol LUVs initially containing A23187 at a concentration of 0.1 μg/μmol lipid. For sample 1 (S1), 146 ng of A23187 was added to the LUVs, and 123 ng was measured by the assay.

[3] = Pressman, cited from earlier work
[4] = large Mn2+ gradient still present; Erdahl et al.; cited from earlier work
[5] = Drug uptake/leakage after removal of nigericin (spin column, dialysis)
Method: Uptake was monitored for LUVs containing 300 mM K2 SO4 at a nigericin concentration of 1 ng/μmol lipid (.box-solid.), and for LUVs which were preincubated with nigericin for 5 min at 60° C., and then passed down a spin column prior to addition of the drug (.circle-solid.).
Thus, an aliquot of nigericin (1 ng NIG/μmol lipid) was added to a sample of SPM/Chol LUVs containing 300 mm KH2 PO4 and the temperature was increased to 60° C. for 5 min to ensure association of nigericin with the lipid. The sample was then exhaustively dialysed at room temperature against 300 mM sucrose for 20 hours, following which an aliquot was passed down a spin column prior to drug loading with VINC (FIG. 10B).
To ensure that such was not the case, control uptake experiments were performed on LUVs containing ethylammonium sulfate and amylammonium sulfate which were subjected to the same conditions.

[6] = literature; cited from earlier work

For `CO[C@@H]1C[C@@H](C[C@H]2CC[C@H](C)[C@H]([C@@H](C)C(=O)O)O2)O[C@]2(O[C@](C)([C@H]3CC[C@@](C)([C@@H]4O[C@@H]([C@H]5O[C@@](O)(CO)[C@H](C)C[C@@H]5C)C[C@@H]4C)O3)C[C@H]2C)[C@@H]1C` [Nigericin, nigericin], the “pH gradient formed across sonicated vesicle membranes” value [1] is given as 2.2 units.

For `CNc1ccc2oc(C[C@H]3O[C@@]4(CC[C@H]3C)O[C@H]([C@H](C)C(=O)c3ccc[nH]3)[C@H](C)C[C@H]4C)nc2c1C(=O)O` [A23187], the “Amount of A23187 measured” value ([2]; S1, initial amount 146 ng, SPM/Chol LUVs) was 123 ng, the “remaining A23187 level” value ([2]; S2, Sephadex G-50 column eluted with 300 mM sucrose, initial 109 ng) was “below background” and the “remaining A23187 concentration” value ([2]; S3, dialysis against 300 mM sucrose) was “below background levels”. For the same molecule, the “Amount of A23187 measured” value ([2]; S4 + 45 ng A23187, initial amount 45 ng) was 41 ng, the “Amount of A23187 measured” value ([2]; S4 + 90 ng A23187, initial amount 90 ng) was 94 ng and the “remaining A23187 concentration” value ([2]; S4, SM-2 biobeads) was “below background levels”. The relative binding affinity ([3]; Ca2+, relative to Mn2+ and Mg2+ (210:2.6:1)) was 2.6, the relative binding affinity ([3]; Mg2+, relative to Mn2+ and Ca2+ (210:2.6:1)) was 1 and the relative binding affinity ([3]; Mn2+, relative to Ca2+ and Mg2+ (210:2.6:1)) was 210. For the same molecule, the “divalent cation transport specificity” value [3] was “Mn^2+ >Ca^2+ >Mg^2+” and the “fraction of entrapped Mn2+ released from POPC vesicles” value [4] was < 1/2.

In the case of amylammonium sulfate, the “encapsulation in control LUVs containing amine salt subjected to the same dialysis” value ([5]; control LUVs, same dialysis conditions) is reported as 80-95%.

In the case of `O=C(O)c1cn(C2CC2)c2cc(N3CCNCC3)c(F)cc2c1=O` [Ciprofloxacin, ciprofloxacin], the entrapment ([5]; SPM/Chol LUVs, 300 mM K2SO4, nigericin 1 ng/μmol lipid and drug added at same time, D/L 0.2, 60 °C, within 30 min) is reported as 80% and the “in vitro leakage rates, normal versus nigericin-reduced LUVs” value ([5]; not shown) is reported as “identical”.

In the case of `COc1cccc2c1C(=O)c1c(O)c3c(c(O)c1C2=O)C[C@@](O)(C(=O)CO)C[C@@H]3O[C@H]1C[C@H](N)[C@H](O)[C@H](C)O1` [doxorubicin], the “effect of encapsulation on drug toxicity (particularly acute cardiotoxicity)” value [6] is given as “can decrease drug toxicity”, the “efficacy in liposomally-encapsulated formulations” value [6] is given as “equal or increased efficacy” and the “toxicity in liposomally-encapsulated formulations” value [6] is given as “significantly reduced toxicity”.
